Experimental data taken from patent US20230391821A1, “METHODS FOR TARGET RELEASE FROM INTEIN COMPLEXES” (MERCK PATENT GMBH, priority 2020, published 2023).

Experiments:
[1] = system: intein complex of intein-C tagged hEPO (19 kDa) and intein-N ligand R46-358132; assay: Example 6: intein cleavage at pH 7, highly glycosylated target hEPO; type: biochemical, human; settings: versus Cleavage B.1
[2] = system: intein complex of 13 kDa intein-C tagged target and intein-N ligand R46-358132; assay: Example 4: intein cleavage with 10 min residence time during elution, with and without pH shift; type: biochemical
Experimental: The intein-N resin prototype column, carrying a third generation of intein-N ligand (R46-358132) was used for five intein purifications. The improvement of intein cleavage through additives such as imidazole (Examples 2, 3) was studied under longer residence times, with and without introducing a pH shift during the elution phase.
One reference run (cycle 1) was accomplished as a reference run for that study, using 5 minutes residence time during the whole purification process (0.2 ml/min flow rate). Further, the intein-N resin prototype column was used in additional four consecutive cycles (cycles 2-5) where a combinatorial method flow rate was given. […]
Depending on the used buffer system during the elution phase, the amount of eluted tagless 13 kDa target was about 0.40-0.91 mg. […] The total intein-C bound protein was calculated using the eluted target and the remaining intein-C target, that was released during the cleaning phase together with the remained intein-C fragments. The amount of eluted target during elution step 1 and step 2 was calculated for all five cycles using the A280-Absorbance and the molecular extinction coefficient of the cleaved target.
The yield of tagless released target during the elution phase was calculated per total bound amount of intein-C target. […]

[3] = system: intein complex of 13 kDa intein-C tagged target (Thioredoxin) and intein-N ligand R44-358132; assay: Example 2-1: intein cleavage / tagless target release on intein-N column, Cleavage Buffer pH 7 with additives; type: biochemical, Escherichia coli (strain K12); settings: 13 kDa target, versus Cleavage B.1
[4] = system: intein complex of 13 kDa intein-C tagged target and intein-N ligand R44-358132; assay: Example 3: intein cleavage under capture conditions (pH 9), no pH shift; type: biochemical; settings: 13 kDa target, versus Capture A.1
Experimental: A 13 kDa intein-C tagged target was pre-purified using Strep-II Tag purification as described in example 1 and was diluted to a concentration of 1 mg/mL. The intein-N resin prototype column was equilibrated with 10 CV Capture Buffer (100 mM Tris, 200 mM NaCl, pH 9). The pre-purified intein-C target was loaded with 5 CV to the prototype column under capture conditions (100 mM Tris, 200 mM NaCl, pH 9). The impurities were washed out with 10 CV Capture Buffer (100 mM Tris, 200 mM NaCl, pH 9). The Capture Buffer designated A.1 (100 mM Tris, 200 mM NaCl, pH 9) was used as a reference in this setup. […]
The two different Capture Buffers A.1 and A.2 were used in two consecutive purification cycles. The A280-Absorbance chromatograms were recorded and analyzed to determine the amount of protein recovered from the elution and the CIP phase.
The amount of eluted target recovered from the elution step 1 and elution step 2 were determined using the A280-Absorbance and the molecular extinction coefficient of the cleaved target. The total bound amount of intein-C tagged protein was calculated using the eluted target, and the remaining intein-C target, that was released during the cleaning phase together with the remained intein-C fragments. The yield of tagless released target during the elution phase was calculated per total bound intein-C target. […]

[5] = system: intein complex of intein-C tagged S1-RBD (26 kDa) and intein-N ligand R49-358132; assay: Example 6: intein cleavage at pH 7, highly glycosylated target S1-RBD; type: biochemical, SARS-CoV-2; settings: versus Cleavage B.1

c1c[nH]cn1 [imidazole]
% improvement in yield (total) [1]: 12.22% | elution amount in A280 chromatogram compared with buffer without additive ([2]; 13 kDa target, elution 1 and 2, FIG. 9): higher elution amount | % improvement in yield (E1) ([2]; cycle 3 (B.2) versus cycle 1 (B.1, 0.2 ml/min), cycle 5 (A.2) versus cycle 4 (A.1)): 12.51% | % improvement in yield (E1) [3]: up to 11.15% | % improvement in yield (E1) [4]: 15.15% | % improvement in yield (total) [5]: 1.95%
